Read-outs that look alike come from different tables or passages of the source.
Columns and labels:
E. coli SPase = E. coli SPase (Escherichia coli, UniProt P00803); assay: Biochemical activity
S. aureus SPase = S. aureus SPase (Staphylococcus aureus, UniProt P0A070); assay: Biochemical activity
[1] = test system: methicillin resistant S. aureus (MRSA) strain USA300; settings: included for reference, cited from earlier work
[2] = test system: S. aureus (MSSA) strain 8325; settings: wild type MSSA strain 8325; included for reference; cited from earlier work
E. coli (MG1655) = settings: wild type MG1655; included for reference; cited from earlier work

E. coli SPase, sequence (P00803 whole entry): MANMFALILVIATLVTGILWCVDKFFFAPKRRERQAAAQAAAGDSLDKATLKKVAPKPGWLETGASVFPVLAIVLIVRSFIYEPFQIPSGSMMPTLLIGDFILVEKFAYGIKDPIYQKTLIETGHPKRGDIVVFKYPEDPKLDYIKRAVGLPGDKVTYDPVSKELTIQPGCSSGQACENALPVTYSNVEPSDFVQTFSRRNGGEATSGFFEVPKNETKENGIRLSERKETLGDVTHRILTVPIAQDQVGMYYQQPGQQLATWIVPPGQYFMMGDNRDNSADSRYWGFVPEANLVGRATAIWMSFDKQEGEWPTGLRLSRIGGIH
S. aureus SPase, sequence (P0A070 whole entry): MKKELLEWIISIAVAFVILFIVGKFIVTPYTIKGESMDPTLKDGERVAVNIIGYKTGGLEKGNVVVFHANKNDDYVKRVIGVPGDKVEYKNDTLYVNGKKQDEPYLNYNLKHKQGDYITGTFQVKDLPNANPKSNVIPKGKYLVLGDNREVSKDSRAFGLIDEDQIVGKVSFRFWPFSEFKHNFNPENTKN

SMILES: CCCCCCCCCCCCCCCC(=O)N(C)[C@H](CO)C(=O)N[C@H](C)C(=O)NCC(=O)N(C)[C@@H]1C(=O)N[C@@H](C)C(=O)N[C@H](C(=O)O)Cc2ccc(O)c(c2)-c2cc1ccc2OP(=O)(O)O [Compound 7]
- IC50 difference relative to arylomycin A-C16 (E. coli SPase): ≤ 2 fold
- IC50 difference relative to arylomycin A-C16 (S. aureus SPase): ≤ 2 fold

SMILES: CCCCCCCCCCCCCCCC(=O)N(C)[C@H](CO)C(=O)N[C@H](C)C(=O)NCC(=O)N(C)[C@@H]1C(=O)N[C@@H](C)C(=O)N[C@H](C(=O)NCP(=O)(Oc2ccccc2)Oc2ccccc2)Cc2ccc(O)c(c2)-c2cc1ccc2O [Compound 4]
- change of affinity/activity relative to parent, in words (E. coli SPase): lost virtually all affinity
- change of affinity/activity relative to parent, in words (S. aureus SPase): lost virtually all affinity

SMILES: CCCCCCCCCCCCCCCC(=O)N(C)[C@H](CO)C(=O)N[C@H](C)C(=O)NCC(=O)N(C)[C@@H]1C(=O)N[C@@H](C)C(=O)N[C@H](C(=O)O)Cc2ccc(O)c(c2)-c2cc1ccc2OCCN [Compound 9]
- IC50 difference relative to arylomycin A-C16 (E. coli SPase): ≤ 2 fold
- IC50 difference relative to arylomycin A-C16 (S. aureus SPase): ≤ 2 fold

SMILES: CCCCCCCCCCCCCCCC(=O)N(C)[C@H](CO)C(=O)N[C@H](C)C(=O)NCC(=O)N(C)[C@@H]1C(=O)N[C@@H](C)C(=O)N[C@H](C(=O)NCC=O)Cc2ccc(O)c(c2)-c2cc1ccc2O [Compound 5]
- more potent than arylomycin A-C16 (E. coli SPase): 5 fold
- more potent than arylomycin A-C16 (S. aureus SPase): 40 fold

SMILES: CCCCCCCCCCCCCCCC(=O)N(C)[C@H](CO)C(=O)N[C@H](C)C(=O)NCC(=O)N(C)[C@@H]1C(=O)N[C@@H](C)C(=O)N[C@H](C(=O)NCP(=O)(O)O)Cc2ccc(O)c(c2)-c2cc1ccc2O [Compound 1]
- loss of activity relative to parent arylomycin A-C16 (E. coli SPase): ~ 10 fold
- loss of activity relative to parent arylomycin A-C16 (S. aureus SPase): ~ 10 fold

SMILES: CCCCCCCCCCCCCCCC(=O)N(C)[C@H](CO)C(=O)N[C@H](C)C(=O)NCC(=O)N(C)[C@@H]1C(=O)N[C@@H](C)C(=O)N[C@H](CC(=O)NCC=O)Cc2ccc(O)c(c2)-c2cc1ccc2O [Compound 6]
- change of affinity/activity relative to parent, in words (E. coli SPase): lost virtually all activity
- change of affinity/activity relative to parent, in words (S. aureus SPase): lost virtually all activity

SMILES: CCCCCCCCCCCCCCCC(=O)N(C)[C@H](CO)C(=O)N[C@H](C)C(=O)NCC(=O)N(C)[C@@H]1C(=O)N[C@@H](C)C(=O)N[C@H](C(=O)O)Cc2ccc(O)c(c2)-c2cc1ccc2OCCO [Compound 11]
- IC50 difference relative to arylomycin A-C16 (E. coli SPase): ≤ 2 fold
- IC50 difference relative to arylomycin A-C16 (S. aureus SPase): ≤ 2 fold

SMILES: CCCCCCCCCCCCCCCC(=O)N(C)[C@H](CO)C(=O)N[C@H](C)C(=O)NCC(=O)N(C)[C@@H]1C(=O)N[C@@H](C)C(=O)N[C@H](C(=O)O)Cc2ccc(O)c(c2)-c2cc1ccc2O [arylomycin A-C16]
- MIC MRSA ([1]; listed as A-C16): >64 µg/mL
- MIC MRSA [1]: no detectable activity
- MIC S. aureus [2]: >64 µg/mL
- MIC E. coli (E. coli (MG1655)): >64 µg/mL

SMILES: CCCCCCCCCCCCCCCC(=O)N(C)[C@H](CO)C(=O)N[C@H](C)C(=O)NCC(=O)N(C)[C@@H]1C(=O)N[C@@H](C)C(=O)N[C@H](C(=O)NCC=O)Cc2ccc(O)c(c2)-c2cc1ccc2OP(=O)(OCc1ccccc1)OCc1ccccc1 [Compound 8]
- lower affinity on the glycyl aldehyde backbone (E. coli SPase; Hpg modification on glycyl aldehyde scaffold (of 5)): 15 fold

— paper PMC3981466 (Bioorganic & medicinal chemistry letters, 2013)
